This note sets out measurements from patent US20260028334A1, “N-(3-(BENZO[B]THIOPHENE-2-CARBOXAMIDO)-PHENYL)-2,3-DIHYDROBENZO[B][1,4]DIOXINE-6-CARBOXAMIDE DERIVATIVES AND RELATED COMPOUNDS AS LACTATE/ATP PRODUCTION INHIBITORS FOR THE TREATMENT OF CANCER” (WMT Aktiengesellschaft, priority 2022, published 2026).

For test [1], the system named is HeLa, 4T1, LLC1, A549, MDA-MB-231 and MiaPaCa2 cells. In words: Lactate production inhibition assay (FIG. 2). In kind it is cell-based. Particulars: 48 hours treatment, 1.5 to 10000 nM. The text has this: Recombinant Lactate Dehydrogenase A (LDHA) was used to convert lactate in tissue culture supernatants to pyruvate, with the concomitant reduction of NAD^+ to NADH. The electron acceptor 1-methoxyphenazine methosulfate (MPMS) was then reduced by the generated NADH, thereby regenerating NAD+. Reduced 1-methoxyphenazine methosulfate is used in turn to reduce Water Soluble Tetrazolium 8 (WST8) to an orange WST8 formazan product. The assay is adapted from the publication “Application of WST-8 based colorimetric NAD(P)H detection for quantitative dehydrogenase assays” described in Chamchoy et al., BMC Biochemistry (2019) 20(1):4.
Cells were plated at 4,000 per well in 96-well plate in a medium of high glucose DMEM (PAN) supplemented with 10% FBS (PAN), 2 mM glutamine-alanine (PAN), 2 mM pyruvate (Sigma) and 10 mL/L penicillin-streptomycin (PAN) and grown at 37° C. in 0.5% O2, 5% CO2 and 75% humidity. For hypoxia, cells were grown and treated in the Whitley H35 Hypoxystation (Don Whitley Scientific) at 37° C. in 0.5% O2, 5% CO2 and 75% humidity. […] Thereafter, 80 μl of substrate mix is added to 20 μl of diluted cell supernatant in a 96-well flat-bottomed plate and the absorbance at 460 nm determined at one minute intervals over a 30 minute period. […]

In test [2] the test system is ER stress markers CHAC, CHOP/DDIT3, XBP1 and SLC7A11. In words: Gene expression analysis by qPCR (FIG. 3). The test is classed as cell-based. Particulars: HeLa, 4T1, LLC1, A549, MDA-MB-231 and MiaPaCa2 cells, 10 nM, 0.5, 1, 2 and 4 hours. The protocol:
Cells were plated at 40,000 cells per ml in medium of high glucose DMEM (PAN) supplemented with 10% FBS (PAN), 2 mM glutamine-alanine (PAN), 2 mM pyruvate (Sigma) and 10 mL/L penicillin-streptomycin (PAN), and grown at 37° C. in 0.5% O2, 5% CO2 and 75% humidity. Next day, cells were induced with test compounds (FIG. 3: compounds of example 3/16, 3/8, 10 at 10 nM; FIG. 8E-8AB: compounds of example 3/16, 3/8, 10, 3/19, 30 and 30/2 at 10 nM) 0.5, 1, 2 and 4 hours, as well as with vehicle (DMSO) only. After this time, the cells were lysed according to protocol (Promega, SV 96 Total RNA Isolation System, #Z3505). After transferring the lysate to a 96-well-RNA binding plate, RNA was isolated and put at approx. 1 μg into cDNA synthesis using LunaScript RT SuperMix Kit (NEB, #E3010). The resulting cDNA was diluted 1:5 and used for qPCR Analysis (Taqman). Luna Universal Probe qPCR Master Mix (NEB, #M3004) is used as 2× reaction mix to which the diluted cDNA is added. The qPCR analysis was performed using QuantStudio™ 6 Flex real-time PCR systems (Thermo Fisher Scientific).
A set of primers plus probe for each gene of interest was purchased at IDT (Integrated DNA Technologies).

Each structure is given as a SMILES string.

For the molecule `O=C(Nc1ccc(F)c(NC(=O)c2cc3ccc(OCCCN4CCCC4)cc3s2)c1)c1ccc2c(c1)OCCO2` [3/8], the lactate production level entry in test [1] is “dose-dependent reduction”. The “ER stress markers CHAC, CHOP/DDIT3, XBP1 and SLC7A11” value in test [2] is listed as “time-dependent upregulation”.
As for `Cc1ccc(NC(=O)c2ccc3c(c2)OCCO3)cc1NC(=O)c1cc2cccnc2s1` [3/16], the lactate production level entry in test [1] is listed as “dose-dependent reduction”. In test [2], the “ER stress markers CHAC, CHOP/DDIT3, XBP1 and SLC7A11” value is recorded as “time-dependent upregulation”.
